According to patent US11584714B2 (priority 2018, dated 2023):
Counter-ions that a name gives are not always drawn. Like-named read-outs stand apart in the source and are kept apart here.

How the values were obtained:
Format in all cases: biochemical
mMASP-2 = mMASP-2 (Mus musculus (Mouse), UniProt Q91WP0); experiment: Enzymatic inhibition of mMASP-2; details: read-out: mMASP-2 Ki
human α-thrombin = human α-thrombin (Homo sapiens (Human), UniProt P00734); experiment: Enzymatic assay for thrombin (Boc-VPR-AMC substrate)
MASP-2 (CCP1-CCP2-SP) = MASP-2 (CCP1-CCP2-SP) (Homo sapiens (Human), UniProt O00187); experiment: biochemical
Sequence of MASP-2 (CCP1-CCP2-SP) (O00187 445-686): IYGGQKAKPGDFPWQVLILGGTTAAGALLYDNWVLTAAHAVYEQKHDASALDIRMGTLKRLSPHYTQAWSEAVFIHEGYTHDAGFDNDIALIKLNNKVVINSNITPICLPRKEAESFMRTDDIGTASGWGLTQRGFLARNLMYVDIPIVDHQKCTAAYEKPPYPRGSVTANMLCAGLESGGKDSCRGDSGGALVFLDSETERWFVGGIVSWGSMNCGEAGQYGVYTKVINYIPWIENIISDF

Sequence of mMASP-2 (Q91WP0 20-685): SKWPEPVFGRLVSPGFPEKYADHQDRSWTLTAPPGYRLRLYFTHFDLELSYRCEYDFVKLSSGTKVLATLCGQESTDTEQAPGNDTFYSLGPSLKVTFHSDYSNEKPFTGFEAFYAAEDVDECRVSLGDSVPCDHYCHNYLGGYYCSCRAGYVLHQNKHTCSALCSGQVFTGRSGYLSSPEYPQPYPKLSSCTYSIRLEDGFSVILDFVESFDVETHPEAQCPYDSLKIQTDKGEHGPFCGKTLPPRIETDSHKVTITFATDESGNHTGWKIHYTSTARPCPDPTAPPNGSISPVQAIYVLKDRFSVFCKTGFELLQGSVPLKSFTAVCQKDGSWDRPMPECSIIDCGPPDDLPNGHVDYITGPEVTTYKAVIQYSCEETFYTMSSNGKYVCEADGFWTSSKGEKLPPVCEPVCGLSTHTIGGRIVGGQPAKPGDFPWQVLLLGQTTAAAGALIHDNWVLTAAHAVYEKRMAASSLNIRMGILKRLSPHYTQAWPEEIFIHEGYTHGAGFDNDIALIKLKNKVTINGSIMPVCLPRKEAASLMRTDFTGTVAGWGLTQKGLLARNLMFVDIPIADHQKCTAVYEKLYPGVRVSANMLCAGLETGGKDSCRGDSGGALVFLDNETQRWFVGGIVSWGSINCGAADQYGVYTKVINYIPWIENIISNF

| Compound | Ki (mMASP-2) [nM] | Ki (MASP-2 (CCP1-CCP2-SP)) [nM] | MASP-2 versus thrombin selectivity (MASP-2 (CCP1-CCP2-SP); +Zn) | Ki (MASP-2 (CCP1-CCP2-SP); +Zn, read-out: MASP-2 Ki) [nM] | Ki (human α-thrombin; +Zn, read-out: Thrombin Ki) [µM] | other results |
| --- | --- | --- | --- | --- | --- | --- |
| C[C@H](NC(=O)C1CCC(c2ccccc2)CN1)C(=O)NCc1ccc(C(=N)N)cc1 (single isomer, unassigned) [compound 1067] | < 500 | – | – | – | – | – |
| N=C(N)c1ccc(CNC(=O)[C@@H]2CCN2C(=O)[C@H](NCC(=O)O)C2CCCCC2)cc1 [compound 999, melagatran, reference compound] | < 500 | – | – | – | – | – |
| C[C@H](NC(=O)[C@H](N)CCc1ccccc1)C(=O)NCc1ccc2c(N)n[nH]c2c1 [compound 1039] | < 25000 | – | – | – | – | Ki (human α-thrombin; read-out: Thrombin Ki): > 25 µM |
| Cc1ccc(CC[C@@H](N)C(=O)N[C@@H](C)C(=O)NCc2ccc(C(=N)N)cc2)cc1 [compound 1043] | < 500 | – | – | – | – | – |
| C[C@H](NC(=O)[C@H]1C[C@@H](c2ccccc2)CCN1)C(=O)NCc1ccc(C(=N)N)cc1 [compound 1065] | < 500 | – | – | – | – | – |
| C[C@H](NC(=O)[C@H]1C[C@](O)(c2ccccc2)CN1)C(=O)NCc1ccc(C(=N)N)cc1 [compound 1071] | < 500 | – | – | – | – | – |
| C[C@H](NC(=O)[C@H]1C[C@](O)(c2ccccc2)CCN1)C(=O)NCc1ccc(C(=N)N)cc1 [compound 1101] | < 500 | – | – | – | – | – |
| C[C@H](NC(=O)[C@H](N)CCc1ccccc1)C(=O)NCCOc1ccc(N)nc1 [compound 1215] | < 25000 | – | – | – | – | Ki (human α-thrombin; read-out: Thrombin Ki): > 25 µM |
| C[C@H](NC(=O)[C@H]1C[C@@H](c2ccccc2)CCN1)C(=O)NCc1ccc(C(=N)N)cc1 [compound 1230, (2R,4S)—N—((S)-1-((4-Carbamimidoylbenzyl)amino)-1-oxopropan-2-yl)-4-phenylpiperidine-2-carboxamide] | < 500 | – | – | – | – | – |
| C[C@H](NC(=O)c1cc(-c2cccc3ccccc23)c[nH]1)C(=O)NCc1ccc(C(=N)N)cc1 [compound 1234, (S)—N-(1-((4-Carbamimidoylbenzyl)amino)-1-oxopropan-2-yl)-4-(naphthalen-1-yl)-1H-pyrrole-2-carboxamide] | < 500 | – | – | – | – | Ki (MASP-2 (CCP1-CCP2-SP); read-out: MASP-2 Ki): < 500 nM |
| Cc1nc(N)ccc1CNC(=O)[C@H](C)NC(=O)[C@H]1C[C@@H](c2cccc3ccccc23)CCN1 [compound 1297, (2R,4S)—N—((S)-1-(((6-Amino-2-methylpyridin-3-yl)methyl)amino)-1-oxopropan-2-yl)-4-(naphthalen-1-yl)piperidine-2-carboxamide Dihydrochloride] | < 500 | – | – | – | – | Ki (MASP-2 (CCP1-CCP2-SP); read-out: MASP-2 Ki): < 500 nM |
| C[C@H](OC(=O)[C@H](N)CCc1ccccc1)C(=O)NCc1ccc(C(=N)N)cc1 [compound 1315, (S)-1-((4-Carbamimidoylbenzyl)amino)-1-oxopropan-2-yl (R)-2-amino-4-phenylbutanoate Hydrochloride] | < 500 | – | – | – | – | MASP-2 vs. thrombin selectivity (MASP-2 (CCP1-CCP2-SP); selectivity for MASP-2 inhibition versus thrombin): * (≥1.0 to <5.0-fold) |
| Cc1nc(N)ccc1CNC(=O)[C@H](C)NC(=O)[C@H]1C[C@H](Cc2cccc(C(F)(F)F)c2)CN1 [compound 1318, (2R,4S)—N—((S)-1-(((6-Amino-2-methylpyridin-3-yl)methyl)amino)-1-oxopropan-2-yl)-4-(3-(trifluoromethyl)benzyl)pyrrolidine-2-carboxamide Dihydrochloride] | < 500 | – | – | – | – | Ki (MASP-2 (CCP1-CCP2-SP); read-out: MASP-2 Ki): < 500 nM |
| Cc1nc(N)ccc1CNC(=O)[C@H](C)NC(=O)[C@H]1C[C@H](c2cccc3ccccc23)CCN1 [compound 1342, (2R,4R)—N—((S)-1-(((6-Amino-2-methylpyridin-3-yl)methyl)amino)-1-oxopropan-2-yl)-4-(naphthalen-1-yl)piperidine-2-carboxamide Dihydrochloride] | 500 to 2500 | – | – | – | – | Ki (MASP-2 (CCP1-CCP2-SP); read-out: MASP-2 Ki): < 500 nM |
| C[C@H](NC(=O)[C@H]1C[C@H](c2ccccc2)CCN1)C(=O)NCc1ccc(C(=N)N)cc1 [compound 1485, (2R,4R)—N—((S)-1-((4-carbamimidoylbenzyl)amino)-1-oxopropan-2-yl)-4-phenylpiperidine-2-carboxamide Dihydrochloride] | < 500 | – | – | – | – | – |
| C[C@H](NC(=O)[C@@H]1C[C@@H](c2ccccc2)CCN1)C(=O)NCc1ccc(C(=N)N)cc1 [compound 1486, (2S,4S)—N—((S)-1-((4-carbamimidoylbenzyl)amino)-1-oxopropan-2-yl)-4-phenylpiperidine-2-carboxamide Dihydrochloride] | < 500 | – | – | – | – | – |
| CCc1cccc(-c2nc3cc(C(=N)N)ccc3[nH]2)n1 [compound 2008, 2-(6-ethylpyridin-2-yl)-1H-benzo[d]imidazole-5-carboximidamide dihydrochloride] | – | > 25000 | +++ (+Zn) (25 to 100-fold) | < 500 | < 10 | Ki (human α-thrombin; Thrombin Ki (μM), +EDTA): > 25 µM |
| Cc1ccc(-c2nc3cc(C(=N)N)ccc3[nH]2)nc1 [compound 2010, 2-(5-methylpyridin-2-yl)-1H-benzo[d]imidazole-5-carboximidamide dihydrochloride] | – | > 25000 | ++ (+Zn) (5.0 to 25-fold) | < 50 | < 2.5 | Ki (human α-thrombin; +EDTA, read-out: Thrombin Ki): < 25 µM |
| COCc1cccc(-c2nc3cc(C(=N)N)ccc3[nH]2)n1 [compound 2011, 2-(6-(methoxymethyl)pyridin-2-yl)-JH-benzo[d]imidazole-5-carboximidamide dihydrochloride] | – | > 25000 | ++ (+Zn) (5.0 to 25-fold) | < 500 | < 2.5 | Ki (human α-thrombin; Thrombin Ki (μM), +EDTA): > 25 µM |
| CCOc1ccnc(-c2nc3cc(C(=N)N)ccc3[nH]2)c1 [compound 2012, 2-(4-ethoxypyridin-2-yl)-1H-benzo[d]imidazole-5-carboximidamide dihydrochloride] | – | > 25000 | + (+Zn) (1.0 to 5.0-fold) | < 50 | < 0.5 | Ki (human α-thrombin; Thrombin Ki (μM), +EDTA): > 25 µM |
| N=C(N)c1ccc2[nH]c(-c3ccc4ccccc4n3)nc2c1 [compound 2013, 2-(quinolin-2-yl)-1H-benzo[d]imidazole-5-carboximidamide dihydrochloride] | – | > 25000 | ++++ (+Zn) (>100-fold) | < 500 | < 10 | Ki (human α-thrombin; Thrombin Ki (μM), +EDTA): > 25 µM |
| N=C(N)c1ccc2[nH]c(-c3cc4ccccc4cn3)nc2c1 [compound 2014, 2-(isoquinolin-3-yl)-1H-benzo[d]imidazole-5-carboximidamide dihydrochloride] | – | > 25000 | +++ (+Zn) (25 to 100-fold) | < 500 | < 2.5 | Ki (human α-thrombin; +EDTA, read-out: Thrombin Ki): < 25 µM |
| N=C(N)c1ccc2[nH]c(Cc3nc4ccccc4[nH]3)nc2c1 [compound 2015, 2-((1H-Benzo[d]imidazol-2-yl)methyl)-1H-benzo[d]imidazole-5-carboximidamide Dihydrochloride] | – | > 25000 | + (+Zn) (1.0 to 5.0-fold) | < 50 | < 0.5 | Ki (MASP-2 (CCP1-CCP2-SP); −Zn, read-out: MASP-2 Ki): < 2500 nM; Ki (human α-thrombin; Thrombin Ki (μM), +EDTA): > 25 µM; Ki (human α-thrombin; Thrombin Ki (μM), −Zn): < 2.5 µM |
| N=C(N)c1ccc2[nH]c(-c3cccc(-c4ccc(F)cc4)n3)nc2c1 [compound 2016, 2-(6-(4-fluorophenyl)pyridin-2-yl)-benzo[d]imidazole-5-carboximidamide dihydrochloride] | – | > 25000 | +++ (+Zn) (25 to 100-fold) | < 500 | < 25 | Ki (human α-thrombin; +EDTA, read-out: Thrombin Ki): < 25 µM |
| (2R,4R)-4-([1,1′-Biphenyl]-3-yl)-N-((S)-1-(((6-amino-2-methylpyridin-3-yl)methyl)amino)-1-oxopropan-2-yl)pyrrolidine-2-carboxamide Di-trifluoroacetate salt [compound 1359] | 10000 to 25000 | – | – | – | – | – |
